Three compounds from patent US20080194467A1, “CANCER TREATMENT METHODS USING CADHERIN ANTAGONISTS IN COMBINATION WITH ANTICANCER AGENTS” (ADHEREX TECHNOLOGIES, INC., priority 2006, published 2008) can be followed below.

Read-outs that look alike come from different tables or passages of the source. Bridge positions count the residues as written; N and C are the ends.

The subject of assay [1] is human melanoma xenografts (DM366 and DM738). As to the kind of experiment: Isolated limb infusion (ILI) of melphalan with or without systemic ADH-1 in nude rats bearing human melanoma xenografts. In kind it is in vivo. Particulars: day 60 after 15 minute regional infusion into the hind limb. (A xenograft is tissue or cells of one species grown in another, often human tumour cells in immunodeficient mice.)

The test system of assay [2] is human melanoma cell line DM738. In kind it is in vivo.
Assay [3] deals with Ovarian Tumor Cell Line A2780. Particulars: paclitaxel 30 mg/kg i.v. qodx5; ADH-1 100 mg/kg i.p. Day 1 then b.i.d.x20. The method, then: In this set of experiments, 100 mg/kg of ADH-1 was administered i.p. as a single dose on Day 1 and then […].) for the duration of the treatment period. 30 mg/kg paclitaxel was administered i.v. on a qodx5 schedule starting on Day 2. For the combination groups, paclitaxel was always administered 5 minutes after the morning ADH-1 dose.

Another assay has as its system A375 tumors. Kind of assay: In vivo combination therapy of A375 tumors, ADH-1 with temozolomide. Particulars: ADH-1 100 mg/kg i.p. qdx8; TMZ 100 mg/kg p.o. qdx5; administered separately. The method, then:
100 mg/kg of TMZ was administered p.o. on a qdx5 schedule starting on Day 4. For the combination groups, TMZ was always administered 1 hour after the ADH-1 dose. A375 tumors were resistant to both TMZ and ADH-1 when administered separately.

For the compound `N[C@@H](Cc1ccc(N(CCCl)CCCl)cc1)C(=O)O` [melphalan], the “increase in tumor volume” value in assay [1] turned out to be 439.4%. For the same compound, the anti-tumor response entry in assay [2] (rat, in vivo) was “no detectable anti-tumor response”.
Take `CC(=O)O[C@H]1C(=O)[C@@]2(C)[C@H]([C@H](OC(=O)c3ccccc3)[C@]3(O)C[C@H](OC(=O)[C@H](O)[C@@H](NC(=O)c4ccccc4)c4ccccc4)C(C)=C1C3(C)C)[C@]1(OC(C)=O)CO[C@@H]1C[C@@H]2O` [paclitaxel]: in assay [3], the “complete cures out of 10 animals” value is 10% and the “delay in tumor growth” value is “transient delay in tumor growth”.
On to “N—Ac-CHAVC-NH2 (disulfide 1-5 (inferred)) [ADH-1]”, for which the anti-tumor response entry in assay [2] (DM738 tumors, single ILI of melphalan and/or systemic ADH-1, compared to vehicle control) is listed as “no detectable anti-tumor response”. Also, the “tumor response to treatment (resistance)” value in the assay on A375 tumors is recorded as “resistant”.
